Results: patent US6090987A, “Metal-ligand complex catalyzed processes” (Union Carbide Chemicals & Plastics Technology Corporation, priority 1998, dated 2000)

Columns and labels:
[1] = Long term catalyst stability, cycling between hydroformylation and simulated vaporizer conditions (Table 2, FIG. 2); conditions: for Percent Deactivation/Day: butadiene 2 psi
Protocol: A series of long term catalyst stability experiments were conducted in the glass reactors in a continuous propylene hydroformylation mode. The reactor consisted of a three ounce pressure bottle submersed in an oil bath with a glass front for viewing. In each example about 20 milliliters of a freshly prepared rhodium catalytic precursor solution was charged to the reactor with a syringe after purging the system with nitrogen. Each precursor solution contained 200 parts per million of rhodium (calculated as free rhodium) introduced as rhodium dicarbonyl acetylacetonate, Ligand F and tetraglyme. The amount of Ligand F (free) employed was 0.4 weight percent.
After closing the reactor, the system was again purged with nitrogen and the oil bath was heated to 80° C., in order to furnish the desired hydroformylation. The hydroformylation reaction in each experiment was conducted at a total gas pressure of about 165 psig, the target partial pressure pressures of hydrogen, carbon monoxide, and propylene being about 45 psia, 45 psia, and 5 psia, respectively, the remainder being nitrogen. The flows of the feed gases (carbon monoxide, hydrogen, propylene, and nitrogen) were controlled individually with mass flow meters. The feed gases were dispersed into the precursor solution via stainless steel 7-micron filters used as spargers. The unreacted portion of the feed gases stripped out the product aldehydes. Examples 14, 15 and 16 were conducted at 80° C. for 2 hours. The feed gases were then turned off and either pure nitrogen or an 88 mole percent nitrogen, 12 mole percent butadiene mixture was fed to the reactor (see Table 2). The pressure of the reactor was then let down to the appropriate pressure so that the target butadiene pressure in the reactor could be achieved. The oil bath temperature was then ramped to 125° C. over a 5 minute period. The bath remained at 125° C. for 10 minutes. The bath was then cooled to 80° C. over a 6 minute period. […]

[2] = Decomposition of free Ligand F and deactivated complex formation at 145° C. by HPLC (FIG. 3); assay type: physicochemical; conditions: for deactivated complex concentration / free Ligand F concentration: 45 psig, treated with 1 ml 1,3-butadiene
Protocol: A catalyst solution (5 milliliters), 600 parts per million in rhodium and 0.8 weight percent in Ligand F generated as in Example 2 was charged to a 3 ounce Fisher Porter bottle and alternately flushed evacuated with nitrogen, then placed in a 145° C. oil bath under nitrogen (80 psig total pressure) and then monitored by HPLC at 1 and 3 hours for the Ligand F and deactivated complex concentrations. The free Ligand F concentration was 0.75, 0.57 and 0.37 weight percent at 0, 1 and 3 hours, respectively, while the deactivated complex concentration was 0.010, 0.57 and 0.89 weight percent at 0, 1 and 3 hours respectively.
The same procedure as in Example 21 was followed except the catalyst solution was treated with 1 milliliter of 1,3-butadiene and then heated at 145° C. for 3 hours (45 psig total pressure). The free Ligand F concentration measured by HPLC (high pressure liquid chromatography) was 0.75, 0.66, and 0.62 weight percent at 0, 1 and 3 hours, respectively, while the deactivated complex concentration was 0.010, 0.012, and 0.05 weight percent at 0, 1 and 3 hours respectively.

[3] = Residual propylene hydroformylation activity after heat treatment, Ligand D catalyst (Table 1); conditions: 125° C./50 hours, excess diene checked
Protocol: About 20 milliliters of the solution was charged to a glass reactor via a syringe after purging the reactor with nitrogen (see Examples 14-20 below). After closing the reactor, the system was again purged with nitrogen and place in an oil bath heated to 100° C. The hydroformylation reaction in each experiment was conducted at a total gas pressure of 160 psig. The target partial pressure of hydrogen, carbon monoxide, and propylene being about 45 psia, 45 psia, and 5 psia respectively, with the remainder being nitrogen. The flows of the feed gases (carbon monoxide, hydrogen, propylene, and nitrogen) were controlled individually with mass flow meters. The feed gases were dispersed into the precursor solution via stainless steel 7-micron filters used as spargers. The unreacted portion of the feed gases stripped out the product aldehydes. Each experiment was operated for 24 hours under the above conditions. The activity is defined as the observed reaction rate divided by the predicted reaction rate. The reaction rates are expressed in terms of gram moles per liter per hour.
The same procedure as in Example 3 was followed except 2 milliliters of 1,3-butadiene was added to the generated catalyst and stirred for 5 minutes. Excess 1,3-butadiene was then removed by alternate evacuation and flushing with nitrogen. The resulting solution was heated at 125° C. as in Example 2, and 20 milliliters of the resulting solution was transferred to a glass reactor as in Example 2 and the activity determined.
The same procedure as in Example 4 was followed except Ligand D (as identified herein) was employed in place of Ligand F. The results are given in Table 1.
The same procedure as in Example 10 was followed except the fresh catalyst solution contained Ligand D in place of Ligand F. The results are given in Table 1.

C=CC=C [Butadiene, 1,3-butadiene]
influence on the catalyst (FIG. 2) ([1]; cycling between 80° C. hydroformylation and 125° C. simulated vaporizer): stabilizing influence | Percent Deactivation/Day ([1]; separation temperature 125° C., butadiene/Rh molar ratio 45): 5 Percent/Day | Percent Deactivation/Day ([1]; separation temperature 135° C., butadiene/Rh molar ratio 55): 5 Percent/Day | deactivated complex concentration ([2]; 0 hours): 0.010 weight percent | free Ligand F concentration ([2]; 0 hours): 0.75 weight percent | deactivated complex concentration ([2]; 1 hour): 0.012 weight percent | free Ligand F concentration ([2]; 1 hour): 0.66 weight percent | deactivated complex concentration ([2]; 3 hours): 0.05 weight percent | free Ligand F concentration ([2]; 3 hours): 0.62 weight percent | decomposition of free Ligand F (FIG. 3) ([2]; prior complexation of catalyst with butadiene): suppresses decomposition of free Ligand F | % Activity [3]: 116% | Final Rate [3]: 1.23 gram moles per liter per hour
